Measurements: ChEMBL document CHEMBL5724709, “EUbOPEN Chemogenomics Library - IncuCyte” (2024)

Experiments:
Assay type in all cases: toxicity, cell-based
HEK-293T = assay: Incucyte cell viability with HEK293T; conditions: human, 24 h, 10 µM, compound concentration 10 uM
Fibroblast = assay: Incucyte cell viability with human fibroblast; conditions: 24 h, 10 µM, compound concentration 10 uM
U2OS = assay: Incucyte cell viability with U2OS; conditions: human, 24 h, 10 µM, compound concentration 10 uM
Also: unitless GR value; below 1 slowed growth and below 0 cell loss.

| Compound | Growth Rate (HEK-293T; replicate number 1) | Growth Rate (HEK-293T; replicate number 2) | Growth Rate (Fibroblast; replicate number 1) | Growth Rate (U2OS; replicate number 1) | Growth Rate (U2OS; replicate number 2) | Growth Rate (Fibroblast; replicate number 2) |
| --- | --- | --- | --- | --- | --- | --- |
| CN1CCN(c2ccc3nc(-c4c(N)c5c(F)cccc5[nH]c4=O)[nH]c3c2)CC1 [DOVITINIB] | -0.39 | -0.2 | 1 | -0.35 | -0.04 |  |
| Nc1ccccc1NC(=O)c1ccc(CNC(=O)OCc2cccnc2)cc1 [ENTINOSTAT] | 1 |  | -0.02 | -0.2 | 0.57 | 0.43 |
| COC(=O)[C@@H]1CC2=CC(=O)CC[C@]2(C)[C@@]23O[C@@H]2C[C@@]2(C)[C@@H](CC[C@@]24CCC(=O)O4)[C@H]13 [EPLERENONE] | 0.61 | 0.95 | 0.25 | 1 |  | 1 |
| CC(=O)N1CCN([C@H]2CCC[C@@H](NC(=O)c3cc4c(F)ccc(C)c4[nH]3)C2)CC1 [EZM-0414] | 0.77 | 0.94 | 0.85 | 0.87 | 0.93 | 0.56 |
| COc1cc(Nc2ncc(F)c(Nc3ccc4c(n3)N(COP(=O)([O-])[O-])C(=O)C(C)(C)O4)n2)cc(OC)c1OC.O.O.O.O.O.O.[Na+].[Na+] [FOSTAMATINIB DISODIUM] | 0.05 | 0.51 | 0.41 | -0.2 | -0.05 | -0.16 |
| C[C@]12CC[C@@H]3c4ccc(O)cc4C[C@@H](CCCCCCCCC[S+]([O-])CCCC(F)(F)C(F)(F)F)[C@H]3[C@@H]1CC[C@@H]2O (stereo not given in full) [FULVESTRANT] | 0.5 | 0.53 | 1 | 0.86 | 0.65 |  |
| C=C(C)[C@@H](CC=C(C)C)C[C@@]12C[C@@H](CC=C(C)C)C(C)(C)[C@@](CC=C(C)C)(C(=O)C(C(=O)c3ccc(O)c(O)c3)=C1O)C2=O [GARCINOL] | 0.69 | 0.83 | 0.23 | 1 | 0.75 | 1 |
| O=C(NO)c1ccc(CN(c2cnccn2)c2cnccn2)cc1 [KA-2507] | 1 |  | 1 | -0.27 | 0.83 | 0.97 |
| C[C@]12O[C@H](C[C@]1(O)CO)n1c3ccccc3c3c4c(c5c6ccccc6n2c5c31)CNC4=O [LESTAURTINIB] | 0.16 | 0.41 | 1 | 0.59 | 0.46 |  |
| CCNC(=O)c1noc(-c2cc(C(C)C)c(O)cc2O)c1-c1ccc(CN2CCOCC2)cc1 [LUMINESPIB] | -0.29 | -0.15 | -0.02 | -0.21 | 0 | -0.27 |
| CNc1ncc2cc(-c3cc(NC(=O)NCCC(C)(C)C)c(F)cc3C)c(C)nc2n1 [LY-3009120] | 0.3 | 0.63 | -0.76 | -0.28 | 0.07 | -0.55 |
